# In PubChem BioAssay (NCI):
#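 Cells were grown in 96-well plates and exposed to each compound for 48 hours at five concentrations; endpoints were interpolated linearly between bracketing concentrations, or set to the highest concentration if not reached. GI50 is the concentration that inhibits growth by half. TGI is the concentration that stops growth completely.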
# Columns and labels:
# Test in all cases: NCI tumour cell line growth inhibition, 48 h
# [1] = test system: SK-MEL-28 melanoma
# [2] = test system: HT29 colon
# [3] = test system: NCI-H226 lung
# [4] = test system: K-562 leukemia
# [5] = test system: A549 NSCLC
# [6] = test system: RXF 393 renal
# [7] = test system: UACC-62 melanoma
# [8] = test system: NCI/ADR-RES ovarian
# [9] = test system: SNB-75 CNS
# [10] = test system: 786-0 renal
# [11] = test system: OVCAR-4 ovarian
# [12] = test system: SF-539 CNS
# [13] = test system: CCRF-CEM leukemia
# [14] = test system: NCI-H460 lung
# [15] = test system: T-47D breast
# [16] = test system: OVCAR-5 ovarian
# [17] = test system: MALME-3M melanoma
# [18] = test system: MOLT-4 leukemia
# [19] = test system: HS 578T breast
# [20] = test system: SF-295 CNS
# [21] = test system: IGROV1 ovarian
# [22] = test system: SF-268 CNS
# [23] = test system: HOP-92 NSCLC
# [24] = test system: BT-549 breast
# [25] = test system: HL-60(TB) leukemia
# [26] = test system: ACHN renal
# [27] = test system: SR leukemia
# [28] = test system: HOP-62 NSCLC
# [29] = test system: UACC-257 melanoma
# [30] = test system: OVCAR-8 ovarian
# [31] = test system: NCI-H522 lung
# [32] = test system: SN12C renal
# [33] = test system: DU-145 prostate
# [34] = test system: SK-MEL-5 melanoma
# [35] = test system: SK-OV-3 ovarian
# [36] = test system: MCF7 breast
# [37] = test system: RPMI-8226 leukemia
# [38] = test system: UO-31 renal
# [39] = test system: CAKI-1 renal
# [40] = test system: U251 CNS
# [41] = test system: HCT-15 colon
# [42] = test system: M14 melanoma
# [43] = test system: SK-MEL-2 melanoma
# [44] = test system: PC-3 prostate
# [45] = test system: MDA-MB-435
# [46] = test system: COLO 205 colon
# [47] = test system: HCC-2998 colon
# [48] = test system: TK-10 renal
# [49] = test system: SNB-19 CNS
# [50] = test system: LOX IMVI melanoma
# [51] = test system: MDA-MB-231 breast
# [52] = test system: NCI-H23 lung
# [53] = test system: SW-620 colon
# [54] = test system: HCT-116 colon
# [55] = test system: KM12 colon
# [56] = test system: OVCAR-3 ovarian
# [57] = test system: A498 renal
structure (smiles),measurement,setting,value
OCc1ccc(-c2cscc2-c2ccc(CO)o2)o1,GI50,[1],> 100 µM
same,TGI,[1],> 100 µM
same,GI50,[2],7.03 µM
same,TGI,[2],> 100 µM
same,GI50,[3],0.112 µM
same,TGI,[3],0.485 µM
same,GI50,[4],7.02 µM
same,TGI,[4],> 100 µM
same,GI50,[5],3.89 µM
same,TGI,[5],30.6 µM
same,GI50,[6],> 20.8 µM
same,TGI,[6],> 89.5 µM
same,GI50,[7],0.435 µM
same,TGI,[7],2.2 µM
same,GI50,[8],32.9 µM
same,TGI,[8],> 100 µM
same,GI50,[9],34.5 µM
same,TGI,[9],> 100 µM
same,GI50,[10],> 33.8 µM
same,TGI,[10],> 100 µM
same,GI50,[11],4.79 µM
same,TGI,[11],49.4 µM
same,GI50,[12],> 100 µM
same,TGI,[12],> 100 µM
same,GI50,[13],> 100 µM
same,TGI,[13],> 100 µM
same,GI50,[14],1.34 µM
same,TGI,[14],5.92 µM
same,GI50,[15],1.46 µM
same,TGI,[15],9.65 µM
same,GI50,[16],0.216 µM
same,TGI,[16],1.97 µM
same,GI50,[17],> 100 µM
same,TGI,[17],> 100 µM
same,GI50,[18],> 100 µM
same,TGI,[18],> 100 µM
same,GI50,[19],> 78.3 µM
same,TGI,[19],> 100 µM
same,GI50,[20],0.923 µM
same,TGI,[20],20.3 µM
same,GI50,[21],0.576 µM
same,TGI,[21],6.47 µM
same,GI50,[22],> 100 µM
same,TGI,[22],> 100 µM
same,GI50,[23],16.1 µM
same,TGI,[23],> 94 µM
same,GI50,[24],> 87.5 µM
same,TGI,[24],> 100 µM
same,GI50,[25],> 100 µM
same,TGI,[25],> 100 µM
same,GI50,[26],> 100 µM
same,TGI,[26],> 100 µM
same,GI50,[27],> 100 µM
same,TGI,[27],> 100 µM
same,GI50,[28],3.55 µM
same,TGI,[28],37.6 µM
same,GI50,[29],0.507 µM
same,TGI,[29],1.91 µM
same,GI50,[30],29.9 µM
same,TGI,[30],> 100 µM
same,GI50,[31],> 93.3 µM
same,TGI,[31],> 100 µM
same,GI50,[32],> 100 µM
same,TGI,[32],> 100 µM
same,GI50,[33],25.9 µM
same,TGI,[33],> 100 µM
same,GI50,[34],16.2 µM
same,TGI,[34],> 100 µM
same,GI50,[35],8.98 µM
same,TGI,[35],50.3 µM
same,GI50,[36],0.57 µM
same,TGI,[36],25.1 µM
same,GI50,[37],28.4 µM
same,TGI,[37],> 100 µM
same,GI50,[38],56.1 µM
same,TGI,[38],> 100 µM
same,GI50,[39],5 µM
same,TGI,[39],> 100 µM
same,GI50,[40],44.1 µM
same,TGI,[40],> 100 µM
same,GI50,[41],> 80.1 µM
same,TGI,[41],> 100 µM
same,GI50,[42],> 100 µM
same,TGI,[42],> 100 µM
same,GI50,[43],22.5 µM
same,TGI,[43],> 100 µM
same,GI50,[44],> 75 µM
same,TGI,[44],> 100 µM
same,GI50,[45],> 100 µM
same,TGI,[45],> 100 µM
same,GI50,[46],1.97 µM
same,TGI,[46],4.83 µM
same,GI50,[47],24.2 µM
same,TGI,[47],> 96.6 µM
same,GI50,[48],> 100 µM
same,TGI,[48],> 100 µM
same,GI50,[49],> 100 µM
same,TGI,[49],> 100 µM
same,GI50,[50],> 100 µM
same,TGI,[50],> 100 µM
same,GI50,[51],> 100 µM
same,TGI,[51],> 100 µM
same,GI50,[52],64.6 µM
same,TGI,[52],> 100 µM
same,GI50,[53],7.14 µM
same,TGI,[53],> 100 µM
same,GI50,[54],1.65 µM
same,TGI,[54],> 69.5 µM
same,GI50,[55],97.4 µM
same,TGI,[55],> 100 µM
same,GI50,[56],4.04 µM
same,TGI,[56],30.6 µM
same,GI50,[57],0.0156 µM
same,TGI,[57],0.0381 µM
